Literature values in US20050000529A1, “Method and compositions for imparting cooling effect to tobacco products” (priority 2001, published 2005).
Entries after “also recorded” stand apart in the source; their conditions may differ.

Tests used:
[1] = taste testing; comparison with related compounds
[2] = tap water, triangle test
[3] = tap water, triangle test; remark: listed apart in the source

Structure (SMILES)	cooling activity (in words) [1]	Cooling Threshold [2] [mg/kg]	Odor Threshold [3] [mg/kg]
CC1=C(N2CCCC2)C(=O)CC1 [Compound 1, 3-methyl-2-(1-pyrrolidinyl)-2-cyclopenten-1-one]	long lasting sensation of coolness; also recorded: high degree of cooling effect	29.0 to 43.5	43.5 to 72.5
CC1CC=C(N2CCCC2)C1=O (centres unmarked) [Compound 2, 5-methyl-2-(1-pyrrolidinyl)-2-cyclopenten-1-one]	long lasting sensation of coolness; also recorded: high degree of cooling effect	4.5 to 9.0	2.6 to 5.2
CC1=C(N2CCCCC2)C(=O)CC1 [Compound 3, 3-methyl-2-(1-piperidinyl)-2-cyclopenten-1-one]		60.0 to 100.0	80.0 to 120.0
CCN(CC)C1=C(C)CCC1=O [Compound 4, 3-methyl-2-diethylamino-2-cyclopenten-1-one]		30.0 to 50.0	2.0 to 3.0
CC1CC=C(N2CCCCC2)C1=O (centres unmarked) [Compound 5, 5-methyl-2-(1-piperidinyl)-2-cyclopenten-1-one]		16.0 to 24.0	12.0 to 20.0
CCN(CC)C1=CCC(C)C1=O (centres unmarked) [Compound 6, 5-methyl-2-diethylamino-2-cyclopenten-1-one]	does not substantially decrease the cooling activity	12.0 to 20.0	6.0 to 9.0
CCCCN(CCCC)C1=CCC(C)C1=O (centres unmarked) [Compound 7, 5-methyl-2-dibutylamino-2-cyclopenten-1-one]	drastically decreases the cooling activity	48.4 to 67.8	2.4 to 2.8
CCCCCCN(CCCCCC)C1=CCC(C)C1=O (centres unmarked) [Compound 8, 5-methyl-2-dihexylamino-2-cyclopenten-1-one]	completely diminishes the cooling activity		
CCC1CC=C(N2CCCC2)C1=O (centres unmarked) [Compound 9, 5-ethyl-2-(1-pyrrolidinyl)-2-cyclopenten-1-one]	significant increase in cooling activity	26.7 to 42.5	13.4 to 22.4
CC1C=C(N2CCCC2)C(=O)C1C (centres unmarked) [Compound 10, (E)-4,5-dimethyl-2-(1-pyrrolidinyl)-2-cyclopenten-1-one]	significant increase in cooling activity	68.0 to 113.3	136.0 to 226.6
CC1=C(N2CCCC2)C(=O)C(C)C1 (centres unmarked) [Compound 11, 3,5-dimethyl-2-(1-pyrrolidinyl)-2-cyclopenten-1-one]	small effect on cooling activity	32.5 to 53.5	16.0 to 27.0
CC1=C(N2CCCC2)C(=O)CC1C (centres unmarked) [Compound 12, 3,4-dimethyl-2-(1-pyrrolidinyl)-2-cyclopenten-1-one]		51.3 to 85.5	25.7 to 42.8
O=C1C=C(N2CCCC2)CC1 [Compound 13, 3-(1-pyrrolidinyl)-2-cyclopenten-1-one]	loss of cooling activity		234.0 to 390.0
CC1=C(N2CCCC2)CCC1=O [Compound 14, 2-methyl-3-(1-pyrrolidinyl)-2-cyclopenten-1-one]	loss of cooling activity		92.0 to 138.0
O=C1CCCC=C1N1CCCC1 [Compound 15, 2-(1-pyrrolidinyl)-2-cyclohexen-1-one]	significantly decreases cooling activity	495.0 to 830.0	62.0 to 106.0
CC1=C(N2CCCC2)C(=O)CCC1 [Compound 16, 3-methyl-2-(1-pyrrolidinyl)-2-cyclohexen-1-one]		90.5 to 150.8	45.2 to 75.4
CC1=C(N2CCCC2)C(=O)CC(C)(C)C1 [Compound 17, 3,5,5-trimethyl-2-(1-pyrrolidinyl)-2-cyclohexen-1-one]		1605.0 to 2675.0	50.2 to 83.6
CC1CCC=C(N2CCCC2)C1=O (centres unmarked) [Compound 18, 6-methyl-2-(1-pyrrolidinyl)-2-cyclohexen-1-one]		26.9 to 44.8	3.4 to 5.6
CC1CC(C)(C)C=C(N2CCCC2)C1=O (centres unmarked) [Compound 19, 4,4,6-trimethyl-2-(1-pyrrolidinyl)-2-cyclohexen-1-one]	significantly decreases cooling activity	2213.0 to 3688.0	553.0 to 922.0
CC1CC=C(N2CCOCC2)C1=O (centres unmarked) [Compound 20, 5-methyl-2-(1-morpholino)-2-cyclopenten-1-one]	substantially decreases the cooling effect	467.0 to 700.8	935.0 to 1558.0
COC(=O)C1CCCN1C1=CC[C@H](C)C1=O (stereo partly drawn) [Compound 21, (S)-5-methyl-2-(2-methoxycarbonyl-1-pyrrolidinyl)-2-cyclopenten-1-one]	substantially decreases the cooling effect	112.0 to 188.0	
CC1=C(N2CCC[C@H]2C(=O)O)C(=O)CC1 [Compound 22, (S)-3-methyl-2-(2-carboxy-l-pyrrolidinyl)-2-cyclopenten-1-one]	substantially decreases the cooling effect	490.0 to 735.0	
CC1=C(N2CCCC2)C(=O)CO1 [Compound 23, 5-methyl-4-(1-pyrrolidinyl)-3-(2H)-furanone]	strong increase in cooling activity; also recorded: high degree of cooling effect	1.5 to 3.0	
CC1=C(N2CCCC2)C(=O)C(C)O1 (stereo not drawn) [Compound 24, 2,5-dimethyl-4-(l-pyrrolidinyl)-3-(2H)-furanone]		100.0 to 140.0	30.0 to 60.0
CC1=C(N2CCCC2)C(=O)OC1 [Compound 25, 4-methyl-3-(1-pyrrolidinyl)-2-(5H)-furanone]	dramatically increases cooling activity; also recorded: high degree of cooling effect	0.05 to 0.06	
CC1=C(N2CCCC2)C(=O)OC1C (centres unmarked) [Compound 26, 4,5-dimethyl-3-(1-pyrrolidinyl)-2-(5H)-furanone]	dramatically increases cooling activity	2.0 to 4.0	32.0 to 64.0
